Measured values as given in patent publication US12168653B2, “Sulfonamide derivates as NLRP3 inhibitors” (Inflazome Limited, priority 2018, dated 2024).
Structures can show the parent of a compound that is named as a salt.

Test system: NLRP3
Assay: THP-1 cells pyroptosis assay (LPS/nigericin, resazurin read-out)
Assay type: cell-based
Conditions: Homo sapiens, THP-1, read-out: THP IC50
Description: THP-1 cells (ATCC #TIB-202) were grown in RPMI containing L-glutamine (Gibco #11835) supplemented with 1 mM sodium pyruvate (Sigma #S8636) and penicillin (100 units/ml)/streptomycin (0.1 mg/ml) (Sigma #P4333) in 10% Fetal Bovine Serum (FBS) (Sigma #F0804). The cells were routinely passaged and grown to confluency (˜10^6 cells/ml). On the day of the experiment, THP-1 cells were harvested and resuspended into RPMI medium (without FBS). The cells were then counted and viability (>90%) checked by Trypan blue (Sigma #T8154). Appropriate dilutions were made to give a concentration of 625,000 cells/ml. To this diluted cell solution was added LPS (Sigma #L4524) to give a 1 μg/ml Final Assay Concentration (FAC). 40 μl of the final preparation was aliquoted into each well of a 96-well plate. The plate thus prepared was used for compound screening.
The following method step-by-step assay was followed for compound screening. • 1. Seed THP-1 cells (25,000 cells/well) containing 1.0 μg/ml LPS in 40 μl of RPMI medium (without FBS) in 96-well, black walled, clear bottom cell culture plates coated with poly-D-lysine (VWR #734-0317) • 2. Add 5 μl compound (8 points half-log dilution, with 10 μM top dose) or vehicle (DMSO 0.1% FAC) to the appropriate wells • 3. Incubate for 3 hrs at 37° C., 5% CO2 • 4. Add 5 μl nigericin (Sigma #N7143) (FAC 5 μM) to all wells • 5. Incubate for 1 hr at 37° C., 5% CO2 • 6. At the end of the incubation period, spin plates at 300×g for 3 mins and remove supernatant • 7. Then add 50 μl of resazurin (Sigma #R7017) (FAC 100 μM resazurin in RPMI medium without FBS) and incubate plates for a further 1-2 hrs at 37° C. and 5% CO2 • 8. Plates were read in an Envision reader at Ex 560 nm and Em 590 nm • 9. IC50 data is fitted to a non-linear regression equation (log inhibitor vs response-variable slope 4-parameters) 96-Well Plate Map

Row | Compound | IC50
1 | COc1cc(-c2ccc3c(c2CC(=O)NS(=O)(=O)N(C)C2CCN(C)C2)CCC3)ccn1 (centres unmarked) [Example 1, 2-(5-(2-Methoxypyridin-4-yl)-2,3-dihydro-1H-inden-4-yl)-N—(N-methyl-N-(1-methylpyrrolidin-3-yl)sulfamoyl)acetamide, Potassium Salt] | < 5 µM
2 | CCN(CC)CCCS(=O)(=O)NC(=O)Cc1c(-c2ccnc(OC)c2)cc(F)cc1C(C)C [Example 3, N-((3-(Diethylamino)propyl)sulfonyl)-2-(4-fluoro-2-isopropyl-6-(2-methoxypyridin-4-yl)phenyl)acetamide, Potassium Salt] | < 5 µM
3 | COc1cc(-c2cc(F)cc(C(C)C)c2CC(=O)NS(=O)(=O)C[C@]23CCC(CC2=O)C3(C)C)ccn1 [Example 7, N-((((1S)-7,7-Dimethyl-2-oxobicyclo[2.2.1]heptan-1-yl)methyl)sulfonyl)-2-(4-fluoro-2-isopropyl-6-(2-methoxypyridin-4-yl)phenyl)acetamide, Potassium Salt] | < 10 µM
4 | COc1cc(-c2cc(F)cc(C(C)C)c2CC(=O)NS(=O)(=O)N(C)C2CCN(C)C2)ccn1 (centres unmarked) [Example 8, 2-(4-Fluoro-2-isopropyl-6-(2-methoxypyridin-4-yl)phenyl)-N—(N-methyl-N-(1-methylpyrrolidin-3-yl)sulfamoyl)acetamide, Potassium Salt] | < 5 µM
5 | COc1cc(-c2cc(F)cc(C(C)C)c2CC(=O)NS(=O)(=O)C[C@@]23CC[C@@H](C[C@H]2O)C3(C)C)ccn1 [Example 9, 2-(4-Fluoro-2-isopropyl-6-(2-methoxypyridin-4-yl)phenyl)-N-((((1R,2R,4S)-2-hydroxy-7,7-dimethylbicyclo[2.2.1]heptan-1-yl)methyl)sulfonyl)acetamide, Potassium Salt] | < 5 µM
6 | COc1cc(-c2cc(F)cc(C(C)C)c2CC(=O)NS(=O)(=O)CCCC(C)(C)O)ccn1 [Example 10, 2-(4-Fluoro-2-isopropyl-6-(2-methoxypyridin-4-yl)phenyl)-N-((4-hydroxy-4-methylpentyl)sulfonyl)acetamide, Potassium Salt] | < 10 µM

Same assay, conditions: Homo sapiens; THP-1 cells, 1 μg/ml LPS, 3 hrs compound, 5 μM nigericin 1 hr; NLRP3 inhibitory activity; read-out: THP IC50

Row | Compound | IC50
7 | CCN(CC)CCCS(=O)(=O)NC(=O)Cc1c(-c2ccnc(OC)c2)ccc2c1CCC2 [Example 2, N-((3-(Diethylamino)propyl)sulfonyl)-2-(5-(2-methoxypyridin-4-yl)-2,3-dihydro-1H-inden-4-yl)acetamide] | < 10 µM
8 | CCN(CC)CCCS(=O)(=O)NC(=O)Cc1c2c(cc3c1CCC3)CCC2 [Example 4, N-((3-(Diethylamino)propyl)sulfonyl)-2-(1,2,3,5,6,7-hexahydro-s-indacen-4-yl)acetamide] | < 10 µM
9 | CC(C)c1cc(F)cc(C(C)C)c1CC(=O)NS(=O)(=O)N(C)C1CCN(C)C1 (centres unmarked) [Example 5, 2-(4-Fluoro-2,6-diisopropylphenyl)-N—(N-methyl-N-(1-methylpyrrolidin-3-yl)sulfamoyl)acetamide] | < 5 µM
10 | CCN(CC)CCCS(=O)(=O)NC(=O)Cc1c(C(C)C)cc(F)cc1C(C)C [Example 6, N-((3-(Diethylamino)propyl)sulfonyl)-2-(4-fluoro-2,6-diisopropylphenyl)acetamide] | < 10 µM
11 | COc1cc(-c2cc(F)cc(C(C)C)c2CC(=O)NS(=O)(=O)CC2(C#N)CCCCC2)ccn1 [Example 11] | < 1 µM
